Laboratory results published in PMC8508660 (2021).

How the values were obtained:
[1] = tested on: 22HT (DNA, G4) AGGGTTAGGGTTAGGGTTAGGG; test: CD melting, 295 nm; details: 100 mM Na+; 10 mM cacodylate pH 7.2; 2 µM DNA, 3 equiv. (6 µM) ligand; derived from two Tm (±0.5)
[2] = tested on: c-MYC (DNA, G4) TGAGGGTGGGTAGGGTGGGTAA; test: CD melting, 265 nm; details: 10 mM K+, 90 mM Li+; 10 mM cacodylate pH 7.2; 2 µM DNA, 3 equiv. (6 µM) ligand; derived from two Tm (±0.5)
[3] = tested on: 22HT (DNA, G4) AGGGTTAGGGTTAGGGTTAGGG; test: CD melting, 290 nm; details: 100 mM K+; 10 mM cacodylate pH 7.2; 2 µM DNA, 3 equiv. (6 µM) ligand; derived from two Tm (±0.5)
[4] = tested on: TBA (DNA, aptamer) GGTTGGTGTGGTTGG; test: CD melting, 295 nm; details: 100 mM K+; 10 mM cacodylate pH 7.2; 2 µM DNA, 3 equiv. (6 µM) ligand; derived from two Tm (±0.5)

COc1nc2c(N)ncnc2[n+]2ccccc12
ΔTm [1]: -0.2 °C
ΔTm [2]: -0.2 °C
ΔTm [3]: 0.7 °C
ΔTm [4]: -0.4 °C
